Test: Angle of repose according to Ph.Eur. chapter 2.9.36
Type: physicochemical
Details: prior to agglomeration
Text: Any flow property provisions such as “passable”, “poor” or “very poor” as used herein shall be understood as flow properties measured and ranked according to pharmacopoeial standards (e.g. European Pharmacopoeia, 6th edition, chapter 2.9.36) unless where specified otherwise: […]

CN(C)CCOC(c1ccccc1)c1ccccc1.Cn1c(=O)c2[nH]c(Cl)nc2n(C)c1=O [Dimenhydrinate]
Angle of repose: 52 °
